According to PMC5927802, “Pharmacokinetics, safety, and tolerability of the 2‐ and 3‐direct‐acting antiviral combination of AL‐335, odalasvir, and simeprevir in healthy subjects” (Pharmacology Research & Perspectives, 2018):
Where two headings read alike, the source gives them in different places.

Assays:
[1] = in vivo; cited from earlier work
[2] = Plasma pharmacokinetics, Phase I open‐label two‐group fixed‐sequence drug‐drug interaction study; details: for AUC0‐24 h LSM ratio / C max LSM ratio: point estimate (90% CI); for AUC: AUC0‐24 h; for Tmax: T max
Excerpt: This was an open‐label, two‐group, fixed‐sequence study conducted at a single study center in Rennes, France (Biotrial). A two‐group, fixed‐sequence study design was chosen as this was deemed to be the most efficient way to evaluate the effect of simeprevir with/without odalasvir on AL‐335; and vice versa (Group 1) and the effect of odalasvir with/without simeprevir on AL‐335; and vice versa (Group 2). Thus, this study design had the potential to gather both 2‐way and 3‐way DDIs. For both groups, the study consisted of a screening period, a study period, and two follow‐up visits. The study was authorized by the French National Agency for the Safety of Medicine and Health Products (ANSM) and was approved by an Independent Ethics Committee (Comité de Protection des Personnes [CPP] Ouest VI, Brest, France; Reference CPP Ouest 6–CPP 888/MS1), and was conducted in accordance with the principles of the Declaration of Helsinki and International Conference on Harmonization. All subjects provided written informed consent to participate. Drug and molecular target nomenclature in this manuscript conforms to the British Journal of Pharmacology's Concise Guide to Pharmacology 2017/18.19
Subjects in Group 1 received simeprevir 150 mg QD on days 4‐23, odalasvir 150 mg (loading dose) on day 14, odalasvir 50 mg QD on days 15‐23, and AL‐335 800 mg QD on days 1‐3, 11‐13, and 21‐23. Subjects in Group 2 received odalasvir 150 mg (loading dose) on day 4, odalasvir 50 mg QD on days 5‐23, simeprevir 150 mg QD on days 14‐23, and AL‐335 800 mg QD on days 1‐3, 11‐13, and 21‐23. […] A minimum of 10 days was considered sufficient for both odalasvir and simeprevir to reach steady‐state.
Subjects were assigned sequentially to Group 1 then to Group 2 after confirming eligibility.
As this was an […] pharmacokinetic study, blood samples for pharmacokinetic analysis were collected predose and at 0.25, 0.5, 1, 2, 3, 4, 6, 8, 10, 12, and 24 hours postdose on days 3, 13, and 23 for determination of AL‐335, ALS‐022399, and ALS‐022227 plasma concentrations (Groups 1 and 2). For simeprevir, blood samples for determination of simeprevir plasma concentrations were taken at the same time points but on days 10, 13, 20, and 23 (Group 1) or days 20 and 23 (Group 2). Blood samples for the determination of odalasvir plasma concentrations were collected predose and at 1, 3, 4, 5, 6, 7, 8, 9, 10, 12, 16, and 24 hours postdose on days 20 and 23 (Group 1) or days 10, 13, 20, and 23 (Group 2), with two further samples also collected on the day 7 and day 28 follow‐up assessments (both groups).
Plasma concentrations of AL‐335, ALS‐022399, ALS‐022227, odalasvir, and simeprevir were determined using validated liquid chromatography‐tandem mass spectrometry methods. Dichlorvos solution was added to blood samples from AL‐335‐treated subjects to stabilize AL‐335 and its metabolites (25 μL of 5 mmol/L dichlorvos into 1 mL blood). The lower limit of quantification was 1 ng/mL, 2 ng/mL, and 5 ng/mL for AL‐335, ALS‐022399, and ALS‐022227, respectively, 1 ng/mL for odalasvir, and 2 ng/mL for simeprevir.
Pharmacokinetic analyses were performed on all subjects with available profiles who received at least one dose of study drug without any protocol deviation affecting pharmacokinetic evaluation. […] Secondary parameters were last observed plasma concentration, apparent elimination half‐life, time of the maximum observed plasma concentration (T max), and time to last measurable plasma concentration (T last).

OATP1B1/1B3 = details: cited from earlier work
P‐glycoprotein = details: cited from earlier work
[3] = system: host polymerases, including the mitochondrial RNA polymerase; details: cited from earlier work
[4] = system: breast cancer resistance protein (BCRP); details: ref data on file; cited from earlier work
[5] = system: CYPs 1A2, 2B6, 2C8, 2C9, 2C19, 2D6, and 3A4; parameters: method as in data on file; details: ref data on file; cited from earlier work
[6] = Group 1 Day 3, AL‐335 alone, mean (SD)
[7] = Group 1 Day 13, AL‐335 + SMV, mean (SD)
[8] = Group 1 Day 23, AL‐335 + ODV + SMV versus AL‐335 alone
[9] = Group 1 Day 23, AL‐335 + ODV + SMV, mean (SD)
[10] = Group 2 Day 3, AL‐335 alone, mean (SD)
[11] = Group 2 Day 13, AL‐335 + ODV, mean (SD)
[12] = Group 2 Day 23, AL‐335 + ODV + SMV versus AL‐335 alone
[13] = Group 2 Day 23, AL‐335 + ODV + SMV, mean (SD)

In the case of `COC(=O)N[C@H](C(=O)N1[C@H](c2nc3cc(-c4cc5ccc4CCc4ccc(c(-c6ccc7[nH]c([C@@H]8C[C@@H]9CCCC[C@@H]9N8C(=O)[C@@H](NC(=O)OC)C(C)C)nc7c6)c4)CC5)ccc3[nH]2)C[C@@H]2CCCC[C@@H]21)C(C)C` [odalasvir], the “clearance route and metabolism” value [1] is listed as “primarily cleared by biliary secretion and undergoes minimal metabolism”, the “drug‐drug interactions (DDIs)” value [1] is listed as “No clinically significant drug‐drug interactions” and the “terminal elimination half‐life” value [1] is listed as “approximately 250 hours”. The “AUC0‐24 h” value ([2]; human, in vivo) was 8694 (3956) ng.h/mL, the C max ([2]; human, in vivo) was 582 (221) ng/mL and the T max ([2]; human, in vivo) was 5.00 (5.0‐7.0) h. The “increase in exposure (C max, C min, AUC0‐24 h)” value ([2]; human, in vivo) was 1.5‐ to 2, the C min ([2]; in vivo) was 235 (132) ng/mL and the Clast ([2]; in vivo) was 287 (150) ng/mL. The T last ([2]; in vivo) was 23.9 (23.9‐24.0) h.
For `C[C@]1(O)[C@H](n2ccc(=O)[nH]c2=O)O[C@](F)(CO)[C@H]1O` [ALS‐022227], the “OATP1B1/1B3 substrate / inhibitor status” value (OATP1B1/1B3) is given as “neither substrates nor inhibitors”, the “difference in T max between any of the treatment combinations” value ([2]; human, in vivo) is given as “No clinically relevant difference” and the “t 1/2” value ([2]; human, in vivo) is given as 6.0 (0.5) h. For the same compound, the “P‐glycoprotein substrate / inhibitor status” value (P‐glycoprotein) was “neither substrates nor inhibitors”.
In the case of `CC(C)OC(=O)[C@H](C)N[P@](=O)(OC[C@@]1(F)O[C@@H](n2ccc(=O)[nH]c2=O)[C@](C)(O)[C@@H]1O)Oc1ccccc1` [AL‐335], the “OATP1B1/1B3 substrate / inhibitor status” value (OATP1B1/1B3; ref data on file) is listed as “neither a substrate nor an inhibitor”, the “interaction with host polymerases” value [3] is listed as “do not interact” and the BCRP substrate status [4] is listed as “substrate”. The “difference in T max between any of the treatment combinations” value ([2]; AL‐335 alone or with odalasvir and/or simeprevir) was “No clinically relevant difference”, the C last [2, 6] was 6 (8) ng/mL and the C max [2, 6] was 162 (77) ng/mL. The T last ([2]; Group 1 Day 3, AL‐335 alone, median (range)) was 6.00 (4.00‐6.00) h, the C last [2, 7] was 3 (2) ng/mL and the C max [2, 7] was 376 (186) ng/mL. The T last ([2]; Group 1 Day 13, AL‐335 + SMV, median (range)) was 8.00 (6.00‐10.00) h, the “AUC0‐24 h LSM ratio” value [2, 8] was 6.92 (5.46‐8.77) and the “C max LSM ratio” value [2, 8] was 4.60 (3.68‐5.75). The C last [2, 9] was 3 (1) ng/mL, the C max [2, 9] was 747 (340) ng/mL and the T last ([2]; Group 1 Day 23, AL‐335 + ODV + SMV, median (range)) was 8.00 (6.00‐10.08) h. For the same compound, the C last [2, 10] was 3 (2) ng/mL, the C max [2, 10] was 151 (72) ng/mL and the T last ([2]; Group 2 Day 3, AL‐335 alone, median (range)) was 6.00 (4.00‐8.00) h. The C last [2, 11] was 2 (1) ng/mL, the C max [2, 11] was 516 (259) ng/mL and the T last ([2]; Group 2 Day 13, AL‐335 + ODV, median (range)) was 8.00 (4.00‐12.00) h. For the same compound, the “AUC0‐24 h LSM ratio” value [2, 12] was 8.23 (6.26‐10.82), the “C max LSM ratio” value [2, 12] was 6.30 (4.93‐8.05) and the C last [2, 13] was 2 (1) ng/mL. The C max [2, 13] was 950 (472) ng/mL, the T last ([2]; Group 2 Day 23, AL‐335 + ODV + SMV, median (range)) was 10.00 (8.00‐12.03) h and the AUC ([2]; human, in vivo, 800 mg, Group 1 Day 3, AL‐335 alone, mean (SD)) was 0.295 µg·h/mL. The AUC ([2]; human, in vivo, 800 mg, Group 2 Day 3, AL‐335 alone, mean (SD)) was 0.324 µg·h/mL, the Tmax ([2]; human, in vivo, 800 mg, Group 1 Day 3, AL‐335 alone, median (range)) was 2 h and the Tmax ([2]; human, in vivo, 800 mg, Group 2 Day 3, AL‐335 alone, median (range)) was 2 h. For the same compound, the half-life ([2]; human, in vivo, 800 mg, t 1/2, Group 1 Day 3, AL‐335 alone, mean (SD)) was 0.61 h, the half-life ([2]; human, in vivo, 800 mg, t 1/2, Group 2 Day 3, AL‐335 alone, mean (SD)) was 0.69 h and the AUC ([2]; human, in vivo, Group 1 Day 13, AL‐335 + SMV, mean (SD)) was 1 µg·h/mL. For the same compound, the AUC ([2]; human, in vivo, Group 1 Day 23, AL‐335 + ODV + SMV, mean (SD)) was 2.08 µg·h/mL, the AUC ([2]; human, in vivo, Group 2 Day 13, AL‐335 + ODV, mean (SD)) was 1.33 µg·h/mL and the AUC ([2]; human, in vivo, Group 2 Day 23, AL‐335 + ODV + SMV, mean (SD)) was 2.92 µg·h/mL. It also gave a Tmax ([2]; human, in vivo, Group 1 Day 13, AL‐335 + SMV, median (range)) of 2 h, a Tmax ([2]; human, in vivo, Group 1 Day 23, AL‐335 + ODV + SMV, median (range)) of 2 h and a Tmax ([2]; human, in vivo, Group 2 Day 13, AL‐335 + ODV, median (range)) of 2 h. The Tmax ([2]; human, in vivo, Group 2 Day 23, AL‐335 + ODV + SMV, median (range)) was 3 h, the half-life ([2]; human, in vivo, t 1/2, Group 1 Day 13, AL‐335 + SMV, mean (SD)) was 0.64 h and the half-life ([2]; human, in vivo, t 1/2, Group 1 Day 23, AL‐335 + ODV + SMV, mean (SD)) was 0.69 h. For the same compound, the half-life ([2]; human, in vivo, t 1/2, Group 2 Day 13, AL‐335 + ODV, mean (SD)) was 0.62 h, the half-life ([2]; human, in vivo, t 1/2, Group 2 Day 23, AL‐335 + ODV + SMV, mean (SD)) was 0.84 h and the “AUC 0‐24 h increase” value ([2]; odalasvir given alone with AL‐335 (abstract)) was 3 fold. For the same compound, the “AUC 0‐24 h increase” value ([2]; simeprevir given alone with AL‐335 (abstract)) was 4 fold and the “inhibition potential for CYPs” value [5] was “low inhibition potential”.
